Activity calls are given as the source filed them. The rule behind the calls is not given here.
Experiments:
ScN2a [1] = test: Inhibition of scrapie prion formation in mouse ScN2a cell line relative to control; type: functional, cell-based
ScN2a [2] = test: Toxicity against ScN2a cell line; type: cell-based; conditions: mouse
Plasmodium falciparum [3] = test: microbe, parasite or virus in culture; conditions: FcB1
ScN2a [4] = test: Inhibition of scrapie prion formation in mouse ScN2a cell line at 200 nM; type: functional, cell-based
ScN2a [5] = test: Inhibition of scrapie prion formation in mouse ScN2a cell line; type: functional
ScN2a [6] = test: Selectivity index, toxicity against ScN2a cell line/EC50 for scrapie prion formation in mouse ScN2a cell line; type: functional
Plasmodium falciparum [7] = test: Antimalarial activity against chloroquine-resistant Plasmodium falciparum FcB1 at 100 nM; type: functional
ScN2a [8] = test: Toxicity against ScN2a cell line at 10 uM; type: cell-based; conditions: mouse
[9] = Toxicity against MRC5 cell line; type: cell-based; conditions: human, MRC5 cells
MRC5 = test: Selectivity index, toxicity against MRC5 cell line/EC50 for scrapie prion formation in mouse ScN2a cell line; type: functional

Row | SMILES | EC50 (ScN2a [1]) | Activity (ScN2a [2]) | IC50 (Plasmodium falciparum [3]) | Activity (ScN2a [4]) | Activity (ScN2a [5]) | Selectivity index (ScN2a [6]) | inhibition at 0.1 µM (Plasmodium falciparum [7]) | Activity (ScN2a [8]) | CC50 [9] | Selectivity index (MRC5)
1 | CC(C)(C)c1ccc(C(=O)NCCCN2CCN(CCCNc3ccnc4cc(Cl)ccc34)CC2)cc1 | 100 nM | 1000 nM | 54.8 nM | Active | 200 nM | 10 |  |  |  | 
2 | O=S(=O)(NCCCN1CCN(CCCNc2ccnc3cc(Cl)ccc23)CC1)c1ccc(Cl)cc1 | 250 nM | 2000 nM |  |  | 500 nM | 8 | 26% |  |  | 
3 | O=C(NCCCN1CCN(CCCNc2ccnc3cc(Cl)ccc23)CC1)c1ccncc1 | 3000 nM |  |  |  | 5000 nM |  | 1% | Non-toxic |  | 
4 | O=C(NCCCN1CCN(CCCNc2ccnc3cc(Cl)ccc23)CC1)C1c2ccccc2Oc2ccccc21 | 100 nM | 750 nM |  |  | 300 nM | 7.5 | 11% |  |  | 
5 | CCN(CC)CCCC(C)Nc1ccnc2cc(Cl)ccc12 (stereo unspecified) [CHLOROQUINE] | 4000 nM |  |  |  | 10000 nM |  |  | Non-toxic | 50000 nM | 
6 | COc1ccc(C(=O)NCCCN2CCN(CCCNc3ccnc4cc(Cl)ccc34)CC2)cc1 | 100 nM | 3000 nM |  |  | 300 nM | 30 |  |  | 4000 nM | 40
7 | O=C(NCCCN1CCN(CCCNc2ccnc3cc(Cl)ccc23)CC1)c1cccc(Oc2ccccc2)c1 | 200 nM | 750 nM |  |  | 300 nM | 3.75 |  |  | 5000 nM | 25
8 | O=C(c1ccc2ccccc2c1)N(CCCN1CCN(CCCNc2ccnc3cc(Cl)ccc23)CC1)CC1CC1 | 75 nM | 2000 nM |  |  | 300 nM | 26.67 | 23% |  |  | 

Source: ChEMBL document CHEMBL1146023, “Similar structure-activity relationships of quinoline derivatives for antiprion and antimalarial effects” (J Med Chem, 2006)
